# From PubChem BioAssay AID1996
# Details: buffer; pH 7.4; 200.0 µM
row,Structure (SMILES),solubility kinetic [µg/mL]
1,COc1ccc(C(=O)Nc2nccs2)cc1,8.1
2,O=C1CCN(C(=O)Cc2ccccc2[N+](=O)[O-])CC1,> 39.3
3,CN1CCc2c(sc(/N=C/c3cc(C(C)(C)C)ccc3O)c2C#N)C1,3.4
4,CCOC(=O)c1c(SC)[nH]c2c(Cl)cccc2c1=O,1.4
5,Cc1[nH]nc(SCC(=O)N2CCOCC2)c1[N+](=O)[O-],> 42.9
6,Cc1ccccc1OCc1ccc(C(=O)N2CCOCC2)o1,41.2
7,O=C(COc1ccccc1Cl)N1CCCCCCC1,31.4
8,COc1ccc(C2Nc3ccccc3C(=O)N2NC(C)=O)cc1OC (stereo not given),> 51.2
9,N=C1C(c2nc3ccccc3s2)=C(O)CN1C1CCC(O)CC1 (stereo not given),5.1
10,Cc1cccc(NC(=O)C2CCN(S(C)(=O)=O)CC2)c1C,> 46.6
11,COc1ccc(/C=C(\C#N)C(=O)N2COCC2(C)C)cc1,> 42.9
12,Cc1ccc(N2N=C(C(=O)O)CCC2=O)cc1Cl,> 40
13,Cc1ccc(C(=O)Nc2cccc(C(=O)NC3CCCCC3)c2)cc1,< 0.4
14,O=C(COC(=O)c1ccc(O)cc1)Nc1ccc(S(=O)(=O)N2CCOCC2)cc1,52.4
15,CCNC(=O)NC(=O)CSc1ccc(S(=O)(=O)N2CCOCC2)cn1,56.2
16,CC(C)(C)OC(=O)N1CCN(c2ccc([N+](=O)[O-])cc2)CC1,1.9
17,Cc1c(-c2csc(N)n2)cnn1C,> 29.1
18,Cc1cc(C)cc(C(=O)NCC(=O)N2CCC(C(N)=O)CC2)c1,> 47.6
19,CCC1CCc2sc(C(=O)NCC3CCCO3)cc2C1 (stereo not given),42.3
20,Cc1cc(C)c(OCC(=O)Nc2nc3ccccc3[nH]2)c(C)c1,0.3
21,CC1CCC(NC(=O)C(=O)Nc2ccc3c(c2)OCO3)CC1 (stereo not given),0.5
22,CN(C)C(CNc1ccc(C(F)(F)F)cn1)c1ccccc1 (stereo not given),> 46.4
23,O=C(N/N=C/c1ccccc1O)C(=O)N1CCCCCC1,> 43.4
24,COc1cc(C)c(S(=O)(=O)NCc2cccnc2)cc1C,> 46

row,Structure (SMILES),solubility kinetic [µg/mL]
1,Cc1ccc(OCCCn2c(=O)oc3ccccc32)cc1,2
2,C=CCN=C1CC(C)(C)C(C(=O)OC)C(O)=C1C(=O)CCC (stereo not given),> 46.1
3,C#Cc1cccc(C(=O)N2CCCC(Nc3cccc(F)c3)C2)c1 (stereo not given),39.5
4,Cc1ccc(C)c(C(=O)CCC(=O)NCc2ccc(Cl)cc2)c1,10.9
5,COc1ccc([N+](=O)[O-])c(OC)c1C(=O)Nc1ccc(F)cc1F,33.9
6,O=C(Nc1cccc([N+](=O)[O-])c1)c1ccc(N2CCCC2=O)cc1,1.5
7,COc1ccc(N=C2NC(=O)C(CO)(CO)S2)cc1,> 42.3
8,Cc1cc(Cl)ccc1-n1c(-c2cccnc2)n[nH]c1=S,> 45.4
9,CCc1nc2ccc(Cc3ccc4nc(CC)[nH]c4c3)cc2[nH]1,> 45.7
10,O=C(NC12CC3CC(CC(C3)C1)C2)c1cc([N+](=O)[O-])ccc1Cl,0.6
11,Cc1ccccc1NC(=O)C(C)N1C(=O)c2ccccc2C1=O (stereo not given),> 46.3
12,CCN(CC)c1ccc(NC(=O)CN(C)Cc2cccs2)cc1,39.1
13,CCc1ccc(Nc2ccc3nonc3c2[N+](=O)[O-])cc1,< 0.2
14,O=C(COc1ccccc1[N+](=O)[O-])Nc1ccc2oc(=O)ccc2c1,0.5
15,CCC(CO)NCc1sccc1C (stereo not given),26.6
16,O=C(c1cc(-c2ccccc2)on1)N1CCCCCC1,39.1
17,CCOC(=O)C1(CCOC)CCN(C(=O)c2sccc2C)CC1,> 50.9
18,COc1ccccc1C(=O)Nc1ccc(Br)c2cccnc12,< 0.4
19,O=C(NCCOc1cccc2cccnc12)c1cccs1,> 44.8
20,Cc1cccc(-c2noc(CCCC(=O)NC3CCCC3)n2)c1,42.2
21,O=C(NOCc1ccccc1)c1ccc(Cl)cc1,11.3
22,CC(C)(C)NC(=O)NC(=O)CN1CCN(c2ccccc2O)CC1,44.8
23,CCOCCCNC(=O)/C(C#N)=C/c1ccc([N+](=O)[O-])o1,24
24,CC(=O)c1c(C)c(C)c2n1CCn1c(C)ccc1-2,13.4

row,Structure (SMILES),solubility kinetic [µg/mL]
1,C=CCc1cccc(CNc2c(C)cc(C)cc2C)c1O,4.7
2,O=C(NCCc1ccccc1F)c1ccc2c(c1)OCCO2,> 45.2
3,O=C(Cn1cnc2ccccc2c1=O)NCc1cccs1,35.6
4,COc1ccc2c(c1)c(CC[NH3+])c(C)n2Cc1ccccc1.[Cl-],44.5
5,COc1cccc(NC(=S)NCc2ccccc2)c1,> 40.9
6,CCNC(=O)c1c(O)c2c([nH]c1=O)CCCC2,3
7,Nc1nc(Cl)c(C=O)c(N2CCCCC2)n1,34.6
8,CCN(CC)CCNc1oc(-c2ccccc2)nc1S(=O)(=O)c1ccccc1,> 59.9
9,CC1(C)CC(=O)C=C(Nc2ccc3c(c2)CCC3)C1,35.8
10,Cc1nn(C)cc1S(=O)(=O)Nc1ncccn1,> 38
11,O=C(Nc1nnc(C2=COCCO2)o1)c1cccc(F)c1,> 43.7
12,O=C(O)CN1C(=O)c2ccc(C(=O)c3ccccc3)cc2C1=O,45.8
13,O=C(Nc1ccno1)Nc1ccc(Cl)cc1Cl,5.4
14,O=C1c2ccc([N+](=O)[O-])cc2C(=O)N1c1ccc([N+](=O)[O-])cn1,41.3
15,Cn1ccnc1SCC(=O)c1ccc(F)cc1,32.3
16,CN(C1CCCCC1)S(=O)(=O)c1ccc(SCC(=O)C(C)(C)C)nc1,3.2
17,O=C1c2ccccc2NC(c2ccccc2O)N1c1ccc(F)cc1 (stereo not given),5.5
18,O=C(Nc1ccc2c(c1)CCC2)Nc1ccccc1Cl,< 0.3
19,CC(C)(CCO)NC(=S)NC1CC2C=CC1C2 (stereo not given),> 38.2
20,CCOc1ccc(C(=O)NCCN2CCCCC2)c(OCC)c1,> 48.1
21,O=[N+]([O-])c1ccc(Cl)cc1N1CCOCC1,> 36.4
22,CCOc1ccccc1NC(=O)c1cc2ccccc2oc1=O,< 0.7
23,C=CCn1c(COc2ccccc2)nc2ccccc21,31.9
24,COc1ccc(C(=O)Nn2c(C)nc3ccccc3c2=O)cc1,> 46.4

row,Structure (SMILES),solubility kinetic [µg/mL]
1,CCOc1ccccc1C(=O)NCC(=O)N(C)Cc1ccccc1C,> 51.1
2,CCOc1ccc(C2/C(=C(/O)c3ccc4c(c3)CC(C)O4)C(=O)C(=O)N2CC2CCCO2)cc1 (stereo not given),61.8
3,Cc1nn(CC(=O)NCCCN2CCCC2=O)c(C)c1[N+](=O)[O-],> 48.5
4,COc1ccc(Cl)cc1NCCC(O)c1ccc(F)cc1 (stereo not given),24.7
5,CCOc1ccc(NC(=O)c2ccccc2NC(=O)c2cccnc2)cc1,1.4
6,O=C(CCCN1C(=O)/C(=C\c2ccccc2)SC1=S)N1CCOCC1,9.8
7,CC(=O)NC(CC(=O)NCCc1ccccc1)c1ccccc1 (stereo not given),45.7
8,CC1CCCCN1C(=O)c1cc2ccccc2cc1O (stereo not given),> 40.4
9,Cn1cccc1CNC(=S)Nc1ccccc1Cl,36.4
10,COC(=O)[C@H](Cc1ccccc1)NC(=O)NC(C)CCc1ccccc1 (stereo not given in full),49.8
11,O=c1sc2ccccc2c(N2CCCCC2)c1[N+](=O)[O-],20.4
12,CCN(CC(=O)Nc1c(F)cccc1F)C(=O)Cc1ccccc1,> 49.9
13,O=C(Cc1cccc(F)c1)Nc1ccc2c(c1)CCC2,1.2
14,C=CCc1ccccc1Oc1cc(OC)nc(N)n1,> 38.6
15,CCCn1c(NC(=O)c2ccc([N+](=O)[O-])o2)nc2ccccc21,10.4
16,O=C(Nc1ccccc1)c1ccccc1OCc1ccc(F)cc1,< 0.7
17,CC(OC(=O)c1ccco1)C(=O)NC1CCCC1 (stereo not given),> 37.7
18,Fc1ccc(-c2csc(-c3ccc(C4SCCS4)cc3)n2)cc1F,< 0.8
19,CC1=Nc2ccccc2/C1=C/c1c(O)n(C)c(=O)[nH]c1=O,> 42.5
20,COc1cc2c(cc1OC)-c1cc(Nc3ccc(F)cc3)nc(=O)n1CC2,2.1
21,Cc1cccc(CC(=O)Nc2ccon2)c1,> 32.4
22,Cc1noc(C)c1S(=O)(=O)N1CCC(C(=O)O)CC1,> 43.2
23,C=CC(=O)NC1CC2CCC1(C)C2(C)C (stereo not given),> 31.1
24,COc1ccc(NC(=S)Nc2ccc(OC(F)F)cc2)cn1,35

row,Structure (SMILES),solubility kinetic [µg/mL]
1,CCOC(=O)c1ccc(NC(=S)N2CCN(c3ccccn3)CC2)cc1,1.2
2,O=C(COC(=O)CCC(=O)c1ccc(F)cc1)Nc1ccc(Cl)cn1,21.1
3,O=c1c2[nH]c3ccc(F)cc3c2ncn1Cc1ccncc1,3.3
4,CC(=O)N1CCN(Cc2nc3cc([N+](=O)[O-])ccc3n2C)CC1,45.1
5,CCN1CCn2c3c(c4cccc(C)c42)CCCC31.Cl (stereo not given),33.6
6,COc1ccc(C(=O)NC(=S)NCc2ccco2)cc1,4.6
7,CCOC(=O)C1=C(CCl)NC(=O)NC1c1ccc2c(c1)OCO2 (stereo not given),> 50.8
8,Cc1ccccc1S(=O)(=O)Nc1ncnc2sccc12,> 45.8
9,O=C(/C=C/c1ccc(Cl)cc1)NCCCN1CCOCC1,> 46.3
10,CCc1ccc(C(=O)CSc2nc(N)cc(=O)[nH]2)cc1,14.2
11,Cc1ccc(F)cc1NC(=O)CCc1c(C)[nH]c(=O)c(C#N)c1C,> 49.1
12,O=C(CSc1nc2ccccc2[nH]1)NC1CCCC1,38.7
13,Cc1ccc(C(=O)NCc2ccc3c(c2)OCO3)c(C)c1,11.1
14,Cc1ccc(C(=O)N/C(=C\c2cccnc2)C(=O)N2CCCC2)cc1,> 50.3
15,CC1CCCC(C)N1C(=O)COC(=O)c1ccc(Br)c(S(=O)(=O)N2CCOCC2)c1 (stereo not given),74.2
16,CC(C)OP(=O)(OC(C)C)C(O)c1ccc(N(C)C)cc1 (stereo not given),> 47.3
17,COC(=O)C1=C(C)N(c2ccc(OC)cc2)C(C)=C(C(=O)OC)C1c1ccccc1,1
18,CC(C)(C)C1CCC(OC(=O)CN2CCCCC2)CC1 (stereo not given),2.4
19,CC1(C)CC(NC(=O)c2cc(Cl)ccc2Cl)CC(C)(C)N1,> 49.4
20,COc1ccc(NC(=O)O/N=C/c2ccc(N(C)C)cc2)cc1,2.8
21,CC(C)CCNC(=O)CSc1nc2ccccc2s1,38.6
22,CC(=O)Nc1ccc(NS(=O)(=O)c2ccc(Cl)s2)cc1,> 49.6
23,CC(CN1C(C)CCCC1C)OC(=O)c1ccccc1Cl (stereo not given),> 46.5
24,O=C(Nc1c(-c2ccccc2)nc2ccccn12)c1ccccc1F,> 49.7
